# US10335448B2, “Compositions and methods for inhibiting fibrosis” (The UAB Research Foundation, priority 2014, dated 2019)
# “Also recorded” adds a separate entry of the source. Where a SMILES comes first, the peptide text is derived from it.
# Legend:
# [1] = system: CXC receptors on neutrophils; conditions: Haddox et al. 1999; cited from earlier work
# [2] = system: bleomycin-induced lung fibrosis; test: Bleomycin-induced pulmonary fibrosis in mice, peptide given intratracheally; conditions: for lung fibrosis measured as lung hydroxyproline, second trial: 250 μg IT daily for two weeks starting day 7, n=6 (FIG. 6); for lung fibrosis on histology (H&E), second trial: 250 μg per day IT for 2 weeks starting day 7 (FIG. 5); for pulmonary fibrosis, summary statement: intra-tracheal administration to bleomycin-exposed mice
# [3] = system: IMR-90 fibroblasts; test: Scratch wound migration of IMR-90 fibroblasts and TGF-β1-differentiated myofibroblasts; assay type: cell-based, human; conditions: 100 μM Ac-PGP, 48 h
# Description: FIGS. 11A-H show IMR-90 fibroblasts under different conditions. IMR-90 fibroblasts were grown to 80-90% confluence (A, C) and differentiated to myofibroblasts with TGF-β1 (E, G). A scratch was made and 100 μM Ac-PGP was added to some cells (FIGS. 11C, G).
# (§1) The simplest explanation for this is a direct effect of Ac-PGP on the myofibroblast, altering its phenotype to stop or perhaps reverse fibrosis. […] Human lung fibroblasts were co-incubated with TGF-β and Ac-PGP and the effects on matrix generation and markers of MF activation and differentiation were observed.
# [4] = system: IMR-90 fibroblasts differentiated to myofibroblasts; test: Western blot of matrix and differentiation markers in IMR-90 myofibroblasts (TGF-β plus Ac-PGP); assay type: cell-based, human
# Description: IMR-90 fibroblasts were differentiated to myofibroblasts with TGF-β 2.5 ng/ml. Ac-PGP at differing concentrations (0, 1, 3, 10 and 30 μg/ml) was added at the same time. Whole cell lysates were obtained after 48 h and probed by WB for the indicated proteins.
# as §1
# [5] = biological target: rhACE (Homo sapiens, UniProt P12821); conditions: not told
# Chain of rhACE (P12821 30-1306): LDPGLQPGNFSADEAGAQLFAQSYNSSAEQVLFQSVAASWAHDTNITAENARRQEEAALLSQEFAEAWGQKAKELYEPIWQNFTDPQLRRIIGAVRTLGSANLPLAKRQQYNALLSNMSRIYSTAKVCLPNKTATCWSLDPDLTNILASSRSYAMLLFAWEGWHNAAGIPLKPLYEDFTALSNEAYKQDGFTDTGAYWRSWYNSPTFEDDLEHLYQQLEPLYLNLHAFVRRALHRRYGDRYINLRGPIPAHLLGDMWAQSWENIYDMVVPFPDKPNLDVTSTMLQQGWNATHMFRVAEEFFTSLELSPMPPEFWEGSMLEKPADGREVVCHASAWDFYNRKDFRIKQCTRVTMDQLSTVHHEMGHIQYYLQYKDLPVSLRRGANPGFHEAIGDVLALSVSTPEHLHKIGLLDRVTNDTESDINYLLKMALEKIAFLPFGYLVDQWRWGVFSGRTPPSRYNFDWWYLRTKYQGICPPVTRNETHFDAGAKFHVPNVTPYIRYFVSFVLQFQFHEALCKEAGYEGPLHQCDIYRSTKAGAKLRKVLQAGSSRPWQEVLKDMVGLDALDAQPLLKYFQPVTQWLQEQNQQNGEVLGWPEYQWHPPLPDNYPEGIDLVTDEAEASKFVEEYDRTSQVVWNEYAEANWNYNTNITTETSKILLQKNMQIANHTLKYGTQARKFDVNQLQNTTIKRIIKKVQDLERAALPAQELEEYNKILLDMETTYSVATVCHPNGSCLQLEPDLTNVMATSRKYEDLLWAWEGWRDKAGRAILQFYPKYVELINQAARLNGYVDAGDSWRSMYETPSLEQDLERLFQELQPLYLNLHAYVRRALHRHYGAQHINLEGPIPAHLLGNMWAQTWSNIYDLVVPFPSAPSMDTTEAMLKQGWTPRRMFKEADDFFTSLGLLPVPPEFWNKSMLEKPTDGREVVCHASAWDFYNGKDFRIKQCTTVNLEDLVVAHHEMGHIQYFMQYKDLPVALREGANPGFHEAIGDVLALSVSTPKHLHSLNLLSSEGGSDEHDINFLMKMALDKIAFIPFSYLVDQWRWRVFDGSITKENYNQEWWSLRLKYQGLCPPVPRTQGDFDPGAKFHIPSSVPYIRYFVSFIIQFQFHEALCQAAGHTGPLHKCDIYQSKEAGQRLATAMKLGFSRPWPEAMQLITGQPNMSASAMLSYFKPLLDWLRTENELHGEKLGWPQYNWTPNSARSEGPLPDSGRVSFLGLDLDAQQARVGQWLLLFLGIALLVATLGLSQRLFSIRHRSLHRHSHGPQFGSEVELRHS
# [6] = system: bleomycin-induced lung fibrosis; conditions: background statement; cited from earlier work
# [7] = TGF-β 2.5 ng/ml, Ac-PGP 1-30 μg/ml, 48 h, WB
SMILES,potency relative to PGP [1],"effectiveness on lung fibrosis measured as lung hydroxyproline ([2]; 125 μg per day IT, days 7 to 21, n=8 (FIG. 4))","effectiveness at abrogating bleomycin-induced pulmonary fibrosis, second trial ([2]; 250 μg IT daily (FIG. 5))","lung fibrosis measured as lung hydroxyproline, second trial [2]","lung fibrosis measured as lung hydroxyproline ([2]; 250 μg IT daily for two weeks starting day 7, n=8 (FIG. 4))","lung fibrosis on histology (H&E), second trial [2]","lung fibrosis on lung histology (H&E) ([2]; Ac-PGP 125 μg IT per day, days 7 to 21 after bleomycin (FIG. 3))","lung fibrosis on lung histology (H&E) ([2]; Ac-PGP 250 μg IT daily for two weeks starting day 7 after bleomycin, vs PBS-treated controls (FIG. 3))","pulmonary fibrosis, summary statement [2]",migration of un-differentiated fibroblasts across the wound [3],migration of myofibroblasts across the wound ([3]; TGF-β1-differentiated),"myofibroblast differentiation and pro-fibrotic functions in vitro, summary statement [4]","SRC phosphorylation [4, 7]","collagen expression [4, 7]","fibronectin expression [4, 7]","α-SMA expression [4, 7]",dose giving the greatest inhibition of myofibroblasts ([4]; lesser effects at 30 and 10 μg/ml),Ac-PGP breakdown by rhACE (in words) [5],fibrosis in the bleomycin model [6]
"CC(=O)N1CCC[C@H]1C(=O)NCC(=O)N1CCC[C@H]1C(=O)O [Ac-PGP, N-acetyl-proline-glycine-proline] (Ac-Pro-Gly-Pro-OH; C-terminus assumed)",several times more potent,about 50%,~100%,almost completely abrogates,almost completely abrogates,abrogates,intermediate effect; also recorded: about half as effective,almost completely abrogates lung fibrosis; also recorded: almost completely abrogated,abrogated pulmonary fibrosis dose-dependently; also recorded: dramatic inhibition of fibrosis; also recorded: greatly reduces fibrosis,did not affect; also recorded: but not fibroblasts,markedly reduced; also recorded: inhibited migration,inhibited myofibroblast differentiation and pro-fibrotic functions,reduced,reduced,reduced,reduced,3 µg/mL,degraded,
"C[C@H](CS)C(=O)N1CCC[C@H]1C(=O)O [Captopril, reference compound]",,,,,,,,,,,,,,,,,,,reduces fibrosis
"O=C(NCC(=O)N1CCC[C@H]1C(=O)O)[C@@H]1CCCN1 [PGP, proline-glycine-proline] (H-Pro-Gly-Pro-OH; C-terminus assumed)",,,,less effective,,partially effective; also recorded: half as effective,,,partial effect,,,,,,,,,,
